From patent US20170056561A1, “COMPOSITIONS FOR THE TREATMENT OF JOINTS” (CorMedix Inc., priority 2015, published 2017)

Key:
[1] = system: Pseudomonas aeruginosa (PAO1); assay: Solution exposure of HA/taurolidine hydrogels to living cultures (bacteria kill); type: cell-based; conditions: 20 μl early phase culture in 980 μl formulation
Description: (§1) The following evaluations were done to assess the performance of gels comprising hyaluronic acid and taurolidine. Solution exposure of the hyaluronic acid/taurolidine hydrogels, immersed in early phase concentrations of 2 test microorganisms, were conducted. Additionally, the physical properties of the hydrogels were assessed to determine their shear/thixotropic properties.
(§2) In this study, two strains of bacteria, Pseudomonas aeruginosa (PAO1) and Stapylococcus aureus strain SA 113), were evaluated for total kill of each of the strains after 4 and 24 hours of exposure. 20 μl of early phase culture of each strain was placed in 980 μl of each hyaluronic acid/taurolidine formulation. Samples of remaining bacteria concentrations were determined for the samples after 4 and 24 hours of exposure. Four controls were prepared, one control without hyaluronic acid and three other controls with different molecular weights of hyaluronic acid (low, medium and high MW) (all without taurolidine). These were compared against the same 3 different molecular weights of hyaluronic acid which contained taurolidine, with each hyaluronic acid MW containing target concentrations of 1.5, 3, or 6% taurolidine by weight in the hyaluronic acid hydrogel matrix (Table 1). […] These were also evaluated against a known antimicrobial, gentamicin.

[2] = system: Stapylococcus aureus strain SA 113; assay: as above; type: cell-based; conditions: 20 μl early phase culture in 980 μl formulation
Description: as §1, §2

## Gentamicin
[1]; 4 hour exposure
  Remaining bacteria concentrations PA01 (4 hr): 0.00E+00
[1]; 24 hour exposure
  Remaining bacteria concentrations PA01 (24 hr): 0.00E+00
[2]; 4 hour exposure
  Remaining bacteria concentrations SA113 (4 hr): 3.77E+02
[2]; 24 hour exposure
  Remaining bacteria concentrations SA113 (24 hr): 8.33E+00
